Data as given in patent US20040116451A1, “Method of treatment” (Pfizer Inc., priority 2002, published 2004).

Test system: men with lower urinary tract symptoms
Assay: 12-Week double-blind study in men with lower urinary tract symptoms (IPSS and bladder diary)
Format: in vivo
Settings: for improvement in IPSS irritative domain: subjects with baseline IPSS irritative domain score ≧β; for improvement in IPSS irritative domain / improvement in irritative LUTS (urgency, daytime micturition frequency, nocturia; bladder diary): controlled release formulation, 12 weeks; for improvement in irritative LUTS (urgency, daytime micturition frequency, nocturia; bladder diary): subjects with irritative LUTS at baseline, compared with placebo
Description: A 12-Week Study in men with lower urinary tract symptoms was undertaken in which the IPSS (International Prostate Symptom Score) was recorded at baseline during, and at the end of, double-blind treatment. The IPSS is composed of seven questions, each with potential responses of 0-5 on a Likert scale. These questions are grouped into two validated domains: the irritative domain (urgency, frequency and nocturia) and the obstructive domain (incomplete emptying, intermittency, weak stream and straining to begin). […] The average daily incidence of urgency, daytime micturition frequency and nocturia (the irritative symptoms) for each subject were derived from this diary. In this study, there were […] treatment groups: 6 mg fixed dose of 4-amino-6,7-dimethoxy-2-(5-methanesulfonamido-1,2,3,4-tetrahydroisoquinol-2-yl)-5-(2-pyridyl)quinazoline, 6 mg escalated to 12 mg at Week 4 of the compound, and placebo. Controlled release formulations according to International Application Publication No. WO 03/032956 were used in each case.

[1] = 12 mg dose escalation group (6 mg escalated to 12 mg at Week 4)

COc1cc2nc(N3CCc4c(cccc4NS(C)(=O)=O)C3)nc(N)c2c(-c2ccccn2)c1OC [4-amino-6,7-dimethoxy-2-(5-methanesulfonamido-1,2,3,4-tetrahydroisoquinol-2-yl)-5-(2-pyridyl)quinazoline]
attenuation of irritative LUTS (overall study result, FIGS. 1 to 4) (12-week study in men with LUTS, controlled release formulations): clinically significant attenuation of irritative LUTS | improvement in IPSS irritative domain (6 mg fixed dose group): improvement in this domain of the IPSS was similarly confirmed | improvement in IPSS irritative domain [1]: improvement in this domain of the IPSS was similarly confirmed | improvement in irritative LUTS (urgency, daytime micturition frequency, nocturia; bladder diary) (6 mg fixed dose group): improvement in these symptoms was confirmed | improvement in irritative LUTS (urgency, daytime micturition frequency, nocturia; bladder diary) [1]: improvement in these symptoms was confirmed
